This is an account of results in patent US20200345689A1, “METHODS AND CO[…] RRx-001 FOR RADIOPROTECTION” (EpicentRx, Inc., priority 2018, published 2020).

Test [1] deals with HO-1. As to the kind of experiment: Western blot of HO-1 in U937 monocytes and macrophages. Type of test: cell-based, human. Conditions: 3 mM RRx-001 for 16 hours. As for the experimental part: (§1) Expression of ARE proteins was assayed in hMSC, macrophages, and monocytes following in vitro irradiation of the cells, which were pretreated with RRx-001 or vehicle. Protein expression was assayed by Western blotting and protein quantification.
(§2) hMSC were treated for 16 hours with […] RRx-001 or the vehicle control (0.05% DMSO), irradiated at 10 Gy or sham-irradiated and the protein collected 8 or 24 hours post-sham or irradiation. Human monocytic leukemic THP-1 and U937 cells were differentiated into macrophages with 50 nM Phorbol 12-myristate 13-acetate (PMA) for 24 hours before treatment. Differentiated and non-differentiated cells were treated with […] RRx-001 or 0.05% DMSO (vehicle control) for 16 hours prior to radiation. The cells were irradiated at 5 Gy or sham-irradiated and collected 4-8 hours later for both analysis. For each experiment, duplicates of each sample were run.

Test [2] concerns HO-1. The test can be described thus: Western blot of HO-1 in THP-1 monocytes and macrophages. Type of test: cell-based, human. To be noted: THP-1 macrophages, 3 mM RRx-001 for 16 hours. As for the experimental part:
as §1, §2

The test system of a further test is CD2F1 male mice. The test can be described thus: 30-day survival following lethal total body irradiation. It counts as in vivo. As for the experimental part:
In this Example, the effects of systemic administration of RRx-001 on survival in response to a lethal dose of radiation was assayed in mice. CD2F1 male mice 9.5-11 weeks old were administered a single dose of RRx-001 by intraperitoneal (IP) injection 24 hours prior to a lethal radiation dose. 24 mice received 10 mg/kg RRx-001 (formulated in 5% DMSO in sterile H2O) and 24 mice received the vehicle control (5% DMSO in sterile H2O only).
The mice were subjected to total body irradiation (TBI) with 9.35 Gy (LD70/30) at 0.6 Gy/min using High-level Cobalt-60. Unanesthetized mice were placed in well-ventilated Plexiglas restrainers and irradiated bilaterally. Sham-irradiated mice were also placed in identical Plexiglas restrainers and kept in a room shielded from irradiation at the same time. In each experiment, the dose to the abdominal cores of the animals was delivered at a dose rate of approximately 0.6 Gy/min. Dosimetry was performed prior to the irradiation of the animals using the highly accurate alanine/electron spin resonance (ESR) dosimetry system (American Society for Testing and Materials, Standard E 1607) to measure dose rates (to water) in the cores of acrylic mouse phantoms, which were located in the compartments of the exposure rack. A calibration curve based on standard alanine calibration dosimeters provided by the National Institute of Standards and Technology (NIST, Gaithersburg, Md.) was used to measure the doses. The accuracy of the dose rate calibrations has been verified several times using the services of the National Physics Laboratory (UK National Standards Laboratory, London, UK) and the M.D. Anderson Cancer Center (Houston, Tex.). The corrections applied to the measured dose rates in the phantoms were for a small difference in the Co-60 energy between the mass energy-absorption coefficients for soft tissue and water, as well as source decay. The radiation field was uniform within ±1.2%.
Mice were monitored at least twice a day for 30 days post-irradiation. During the critical period (days 10-20), mice were monitored at least three times a day with no more than 10 hours between observations. Mice displaying any signs of discomfort received food in their cage as a wet mash. Mice displaying overt dyspnea, weight loss, lethargy, or other markers of moribundity and appearing to be in distress were humanely euthanized in a separate room using carbon dioxide gas followed by cervical dislocation after breathing stopped as a confirmatory method of euthanasia. This experiment was repeated for a total of n=24 mice per group.
Survival curves were estimated using the Kaplan-Meier method and were compared using a two-sided log-rank test at the 0.05 significance level. P-values were considered statistically significant if less than 0.05.

The subject of a further test is NQO-1. The test can be described thus: Western blot of NQO-1 in U937 macrophages. Type of test: cell-based, human. To be noted: 3 mM RRx-001 for 16 hours, sham and irradiated groups. As for the experimental part: as §1, §2
A general note: In western blotting, separated proteins are transferred to a membrane and probed.

The subject of test [3] is human monocytic leukemic THP-1 cells. The test can be described thus: Cytokine array of irradiated THP-1 monocytes and macrophages. It counts as cell-based. As for the experimental part:
A cytokine array was employed to examine cytokine expression following in vitro irradiation of human monocytic leukemic THP-1 cells. THP-1 cells were differentiated into macrophages with 50 nM Phorbol 12-myristate 13-acetate (PMA) for 24 hours before treatment. Differentiated and non-differentiated cells were treated with […] RRx-001 or 0.05% DMSO (vehicle control) for 16 hours prior to radiation. The cells were irradiated at 5 Gy or sham-irradiated and collected 4-8 hours later for both analysis. For the cytokine analysis, cell media was collected and blotted onto Proteome Profiler Human Cytokine Arrays (R&D Systems, Inc.) according to the manufacturer's protocol.

Test [4] deals with NAD(P)H Dehydrogenase [Quinone] 1 (NQO-1). As to the kind of experiment: Western blot of ARE protein expression in hMSC: NQO-1. Type of test: cell-based, human. Conditions: 5 mM RRx-001 for 16 hours, all groups. As for the experimental part: Antioxidant response element (ARE) genes such as heme oxygenase 1 (HO-1), NAD(P)H Dehydrogenase [Quinone] 1 (NQO-1) and Superoxide Dismutase (SOD) are involved in the detoxification and elimination of reactive oxidants.
as §1, §2

The mark [5] stands for this setting: 10 mg/kg 24 hours prior to lethal TBI, vs vehicle control.

As to `O=C(CBr)N1CC([N+](=O)[O-])([N+](=O)[O-])C1` [RRx-001, 2-bromo-1-(3,3-dinitroazetidin-1-yl)ethan-1-one], the HO-1 production entry in the test on HO-1 [1] (U937 macrophages, sham and irradiated groups) is listed as “increased HO-1 production”. Further, the HO-1 expression result is given as “significant increase in HO-1” in the test with HO-1 [1] (U937 monocyte fraction) and “no significant increase in HO-1” in the test on HO-1 [2]. Besides, the “increase in mean survival time” value with CD2F1 male mice (setting [5]) amounted to 7 days. In addition, the increase in survival with CD2F1 male mice (setting [5]) worked out at 33.4%. Also, in the test on CD2F1 male mice (10 mg/kg IP 24 hours prior to 9.35 Gy TBI, 30-day observation, N=24/group), the “survival times, means±standard errors” value is 27.2 ± 1.1 days. The “reduction in the 30-day death risk” value in the test on CD2F1 male mice (one dose of 10 mg/kg IP 24 hours prior to 9.35 Gy (LD70/30) TBI, vs vehicle control irradiated mice) was approximately 33.4%. Further, the NQO-1 expression result in the test on NQO-1 is given as “no change”; in test [4], “slightly reduced”. In addition, the “cytokine expression (cytokine array)” value in test [3] (THP-1 macrophage fraction, 3 mM RRx-001 for 16 hours, sham and 5 Gy irradiated) was “reduction in cytokines involved in inflammation”. Further, the “CCL5/RANTES expression (cytokine array)” value in test [3] (THP-1 monocytes, 3 mM RRx-001 for 16 hours) is “induction”. Also, in test [3] (macrophages), the “pro-inflammatory chemokine IL-8” value is listed as “reduction”.
